Measurements from patent publication EP0550016A1, “Novel quinolone carboxylic acid derivatives and processes for preparing same” (KOREA RESEARCH INSTITUTE OF CHEMICAL TECHNOLOGY, priority 1991, dated 1993).
In brackets after ≈: the same amount, converted by molar mass. Like-named read-outs stand apart in the source and are kept apart here.

How the values were obtained:
Experiment in all cases: In vitro anti-bacterial activity test (MIC, two-fold dilution method) against the standard strains
Type in all cases: cell-based
[1] = test system: Pseudomonas aeruginosa 1771 M; conditions: Table 1 strain 15: Pseudomonas aeruginosa 1771 M
[2] = test system: Staphylococcus aureus 285; conditions: Table 1 strain 5: Staphylococcus aureus 285; read-out: MIC
[3] = test system: Klebsiella aerogenes 1082 E; conditions: Table 1 strain 17: Klebsiella aerogenes 1082 E
[4] = test system: Escherichia coli OTEM; conditions: Table 1 strain 10: Escherichia coli OTEM
[5] = test system: Klebsiella aerogenes 1522 E; conditions: Table 1 strain 18: Klebsiella aerogenes 1522 E
[6] = test system: Pseudomonas aeruginosa 1592 E; conditions: Table 1 strain 13: Pseudomonas aeruginosa 1592 E
[7] = test system: Pseudomonas aeruginosa 9027; conditions: Table 1 strain 12: Pseudomonas aeruginosa 9027
[8] = test system: Enterobacter cloacae 1321 E; conditions: Table 1 strain 20: Enterobacter cloacae 1321 E
[9] = test system: Salmonella typhimurium; conditions: Salmonella enterica; Table 1 strain 16: Salmonella typhimurium
[10] = test system: Escherichia coli 1507 E; conditions: Table 1 strain 11: Escherichia coli 1507 E
[11] = test system: Staphylococcus aureus 503; conditions: Table 1 strain 6: Staphylococcus aureus 503; read-out: MIC
[12] = test system: Escherichia coli DC 0; conditions: DC0; Table 1 strain 7: Escherichia coli DC 0
[13] = test system: Pseudomonas aeruginosa 1771; conditions: Table 1 strain 14: Pseudomonas aeruginosa 1771
[14] = test system: Streptococcus faecium MD 8b; conditions: Enterococcus faecium, MD8B; Table 1 strain 3: Streptococcus faecium MD 8b; read-out: MIC
[15] = test system: Escherichia coli DC 2; conditions: DC2
[16] = test system: Streptococcus pyogenes 77 A; conditions: Table 1 strain 2: Streptococcus pyogenes 77 A; read-out: MIC
[17] = test system: Escherichia coli DC 0; conditions: DC0; Table 1 strain 8: Escherichia coli DC 0
[18] = test system: Staphylococcus aureus SG 511; conditions: SG511; Table 1 strain 4: Staphylococcus aureus SG 511
[19] = test system: Enterobacter cloacae P 99; conditions: P99; Table 1 strain 19: Enterobacter cloacae P 99
[20] = test system: Streptococcus pyogenes 308 A; conditions: Table 1 strain 1: Streptococcus pyogenes 308 A
[21] = Table 1 strain 9: Escherichia coli DC 2, read-out: MIC

Structure (SMILES) | MIC [1] | MIC [2] | MIC [3] | MIC [4] | MIC [5] | MIC [6] | MIC [7] | MIC [8] | MIC [9] | MIC [10] | MIC [11] | MIC [12] | MIC [13] | MIC [14] | MIC [15, 21] | MIC [16] | MIC [17] | MIC [18] | MIC [19] | MIC [20] | other results
CNC1CC12CCN(c1c(F)cc3c(=O)c(C(=O)O)cn4c3c1OC[C@@H]4C)C2 (stereo partly drawn) [Example 10, 9-fluoro-3-(S)-methyl-10-(1-methylamino-5-azaspiro[2,4]heptane-5-yl)-7-oxo-2,3-dihydro-7H-pyrido-[1,2,3-de]-1,4-benzoxazine-6-carboxylic acid] | 0.781 µg/mL (≈ 2.02 µM) | 0.049 µg/mL (≈ 0.126 µM) | 0.007 µg/mL (≈ 0.0181 µM) | 0.049 µg/mL (≈ 0.126 µM) | 0.098 µg/mL (≈ 0.253 µM) | 1.56 µg/mL (≈ 4.03 µM) | 1.56 µg/mL (≈ 4.03 µM) | 0.025 µg/mL (≈ 0.0645 µM) | 0.049 µg/mL (≈ 0.126 µM) | 0.098 µg/mL (≈ 0.253 µM) | 0.049 µg/mL (≈ 0.126 µM) | 0.025 µg/mL (≈ 0.0645 µM) | 1.56 µg/mL (≈ 4.03 µM) | 0.195 µg/mL (≈ 0.503 µM) | 0.049 µg/mL (≈ 0.126 µM) | 0.195 µg/mL (≈ 0.503 µM) | 0.391 µg/mL (≈ 1.01 µM) | 0.049 µg/mL (≈ 0.126 µM) | 0.049 µg/mL (≈ 0.126 µM) | 0.391 µg/mL (≈ 1.01 µM) | 
C[C@H]1COc2c(N3CCC4(CC4C(=O)O)C3)c(F)cc3c(=O)c(C(=O)O)cn1c23 (stereo partly shown) [Example 14] | 1.56 µg/mL (≈ 3.88 µM) | 0.098 µg/mL (≈ 0.244 µM) | 0.098 µg/mL (≈ 0.244 µM) | 0.391 µg/mL (≈ 0.972 µM) | 1.56 µg/mL (≈ 3.88 µM) | 6.25 µg/mL (≈ 15.5 µM) | 12.5 µg/mL (≈ 31.1 µM) | 0.195 µg/mL (≈ 0.485 µM) | 0.781 µg/mL (≈ 1.94 µM) | 0.781 µg/mL (≈ 1.94 µM) | 0.098 µg/mL (≈ 0.244 µM) | 0.195 µg/mL (≈ 0.485 µM) | 12.5 µg/mL (≈ 31.1 µM) | 1.56 µg/mL (≈ 3.88 µM) | 0.391 µg/mL (≈ 0.972 µM) | 1.56 µg/mL (≈ 3.88 µM) | 6.25 µg/mL (≈ 15.5 µM) | 0.098 µg/mL (≈ 0.244 µM) | 0.391 µg/mL (≈ 0.972 µM) | 3.12 µg/mL (≈ 7.77 µM) | 
CNC1CC12CCN(c1c(F)c(N)c3c(=O)c(C(=O)O)cn(C4CC4)c3c1F)C2 (stereo not shown) [Example 12, 7-(1-methylamino-5-azaspiro[2,4]heptane-5-yl)-1-cyclopropyl-5-amino-6,8-difluoro-1,4-dihydro-4-oxoquinoline-3-carboxylic acid] | 0.391 µg/mL (≈ 0.967 µM) | 0.025 µg/mL (≈ 0.0618 µM) | < 0.002 µg/mL | 0.049 µg/mL (≈ 0.121 µM) | 0.098 µg/mL (≈ 0.242 µM) | 3.12 µg/mL (≈ 7.73 µM) | 3.12 µg/mL (≈ 7.73 µM) | 0.025 µg/mL (≈ 0.0618 µM) | 0.049 µg/mL (≈ 0.121 µM) | 0.049 µg/mL (≈ 0.121 µM) | 0.025 µg/mL (≈ 0.0618 µM) | 0.025 µg/mL (≈ 0.0618 µM) | 1.56 µg/mL (≈ 3.86 µM) | 0.195 µg/mL (≈ 0.482 µM) | 0.195 µg/mL (≈ 0.482 µM) | 0.195 µg/mL (≈ 0.482 µM) | 0.391 µg/mL (≈ 0.967 µM) | 0.025 µg/mL (≈ 0.0618 µM) | 0.049 µg/mL (≈ 0.121 µM) | 0.195 µg/mL (≈ 0.482 µM) | 
CC(O)C(=O)O.NC1CC12CCN(c1c(F)cc3c(=O)c(C(=O)O)cn(C4CC4)c3c1Cl)C2 (stereo not shown) [Example 4, 7-(1-amino-5-azaspiro[2,4]heptane-5-yl)-8-chloro-1-cyclopropyl-6-fluoro-1,4-dihydro-4-oxoquinoline-3-carboxylic acid lactate] | 0.195 µg/mL | 0.025 µg/mL | < 0.002 µg/mL | 0.025 µg/mL | 0.025 µg/mL | 0.781 µg/mL | 0.781 µg/mL | 0.007 µg/mL | 0.025 µg/mL | 0.025 µg/mL | 0.013 µg/mL | 0.007 µg/mL | 0.781 µg/mL | 0.098 µg/mL |  | 0.049 µg/mL | 0.098 µg/mL | 0.025 µg/mL | 0.025 µg/mL | 0.098 µg/mL | MIC ([15]; Escherichia coli): 0.049 µg/mL
NCC1CC12CCN(c1c(F)cc3c(=O)c(C(=O)O)cn(C4CC4)c3c1F)C2 (stereo not shown) [Example 15] | 0.391 µg/mL (≈ 1 µM) | 0.195 µg/mL (≈ 0.501 µM) | 0.025 µg/mL (≈ 0.0642 µM) | 0.098 µg/mL (≈ 0.252 µM) | 0.195 µg/mL (≈ 0.501 µM) | 1.56 µg/mL (≈ 4.01 µM) | 1.56 µg/mL (≈ 4.01 µM) | 0.049 µg/mL (≈ 0.126 µM) | 0.098 µg/mL (≈ 0.252 µM) | 0.098 µg/mL (≈ 0.252 µM) | 0.195 µg/mL (≈ 0.501 µM) | 0.049 µg/mL (≈ 0.126 µM) | 1.56 µg/mL (≈ 4.01 µM) | 0.391 µg/mL (≈ 1 µM) | 0.098 µg/mL (≈ 0.252 µM) | 0.195 µg/mL (≈ 0.501 µM) | 0.781 µg/mL (≈ 2.01 µM) | 0.098 µg/mL (≈ 0.252 µM) | 0.195 µg/mL (≈ 0.501 µM) | 0.781 µg/mL (≈ 2.01 µM) | 
